# Structures can show the parent of a compound that is named as a salt.
# Biological target: T1, proton pump (H+/K+-ATPase) (Sus scrofa, UniProt P19156)
# T1 construct: Gastric vesicles were prepared from hog stomach via centrifugal separation; from tissue; host or cells: hog stomach (gastric vesicles, method of Rabon et al. 1988)
# Experiment: Measurement of inhibitory effects on proton pump (H+/K+-ATPase) activities
# Assay type: biochemical
# Details: hog gastric vesicles, K+-specific H+/K+-ATPase activity, Tris-HCl buffer pH 7.4, 37° C. for 40 minutes, malachite green Pi readout
# How it was run: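 Hog gastric vesicles in 60 mmol/l Tris-HCl pH 7.4 with 0.5% DMSO were treated with compounds at room temperature; reaction was started with 10 μl of 10 mmol/l ATP stock. Released Pi was read at 570 nm, K+-specific activity taken as the ±K+ difference. IC50 from 4-parameter logistic fit.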
# T1 sequence (P19156 whole entry): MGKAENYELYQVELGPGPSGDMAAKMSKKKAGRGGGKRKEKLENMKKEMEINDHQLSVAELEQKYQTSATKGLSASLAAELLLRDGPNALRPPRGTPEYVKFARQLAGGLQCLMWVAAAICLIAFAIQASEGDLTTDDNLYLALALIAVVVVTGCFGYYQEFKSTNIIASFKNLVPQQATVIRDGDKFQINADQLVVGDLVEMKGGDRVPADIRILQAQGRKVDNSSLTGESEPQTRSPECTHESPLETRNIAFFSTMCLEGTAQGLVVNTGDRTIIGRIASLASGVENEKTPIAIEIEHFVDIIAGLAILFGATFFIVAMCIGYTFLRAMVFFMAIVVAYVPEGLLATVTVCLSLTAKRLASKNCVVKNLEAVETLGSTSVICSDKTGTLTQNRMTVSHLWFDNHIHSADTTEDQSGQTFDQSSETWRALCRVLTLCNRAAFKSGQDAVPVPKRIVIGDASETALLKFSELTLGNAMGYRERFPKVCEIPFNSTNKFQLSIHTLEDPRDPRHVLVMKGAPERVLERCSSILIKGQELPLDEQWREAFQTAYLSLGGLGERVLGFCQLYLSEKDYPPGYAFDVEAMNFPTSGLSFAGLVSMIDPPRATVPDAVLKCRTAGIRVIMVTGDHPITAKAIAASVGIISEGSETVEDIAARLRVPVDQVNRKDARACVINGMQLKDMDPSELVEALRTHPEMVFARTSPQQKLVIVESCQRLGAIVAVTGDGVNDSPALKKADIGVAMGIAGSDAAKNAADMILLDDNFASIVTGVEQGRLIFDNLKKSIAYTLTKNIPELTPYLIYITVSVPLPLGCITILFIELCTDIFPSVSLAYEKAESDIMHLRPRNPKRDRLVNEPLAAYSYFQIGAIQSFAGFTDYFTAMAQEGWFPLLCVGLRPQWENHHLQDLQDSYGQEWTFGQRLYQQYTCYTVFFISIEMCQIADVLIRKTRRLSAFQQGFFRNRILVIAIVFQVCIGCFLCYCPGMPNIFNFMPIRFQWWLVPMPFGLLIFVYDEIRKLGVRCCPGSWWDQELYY
# T1 sequence (P18434 whole entry partner): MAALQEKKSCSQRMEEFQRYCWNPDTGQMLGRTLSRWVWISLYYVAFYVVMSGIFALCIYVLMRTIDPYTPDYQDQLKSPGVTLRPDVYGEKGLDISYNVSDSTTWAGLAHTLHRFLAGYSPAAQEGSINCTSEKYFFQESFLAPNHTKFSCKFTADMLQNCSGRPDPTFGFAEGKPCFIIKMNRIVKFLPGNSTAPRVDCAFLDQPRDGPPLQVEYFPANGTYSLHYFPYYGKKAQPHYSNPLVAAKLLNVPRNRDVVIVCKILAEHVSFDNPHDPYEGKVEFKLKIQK
row,Compound,IC50 [nM]
1,"CNCc1cn(S(=O)(=O)c2cccnc2)c2cc(Nc3ccc(Cl)nc3Cl)ccc12 [Example 119, N-(2,6-dichloropyridin-3-yl)-3-((methylamino)methyl)-1-(pyridin-3-ylsulfonyl)-1H-indol-6-amine hydrochloride]",480
2,"CNCc1cn(S(=O)(=O)c2cccnc2)c2cc(Nc3ccc(Cl)nc3C(F)(F)F)ccc12 [Example 121, N-(6-chloro-2-(trifluoromethyl)pyridin-3-yl)-3-((methylamino)methyl)-1-(pyridin-3-ylsulfonyl)-1H-indol-6-amine hydrochloride]",440
3,"CNCc1cn(S(=O)(=O)c2cccnc2)c2cc(Nc3ccc(C(F)(F)F)nc3C)ccc12 [Example 124, N-(2-methyl-6-(trifluoromethyl)pyridin-3-yl)-3-((methylamino)methyl)-1-(pyridin-3-ylsulfonyl)-1H-indol-6-amine hydrochloride]",580
4,"CNCc1cn(S(=O)(=O)c2cccnc2)c2cc(Nc3cc(Cl)cnc3C)ccc12 [Example 126, N-(5-chloro-2-methylpyridin-3-yl)-3-((methylamino)methyl)-1-(pyridin-3-ylsulfonyl)-1H-indol-6-amine hydrochloride]",510
5,"CNCc1cn(S(=O)(=O)c2cccnc2)c2cc(Nc3c(C)ccnc3Cl)ccc12 [Example 127, N-(2-chloro-4-methylpyridin-3-yl)-3-((methylamino)methyl)-1-(pyridin-3-ylsulfonyl)-1H-indol-6-amine hydrochloride]",640
6,"CNCc1cn(S(=O)(=O)c2cccnc2)c2cc(Nc3ccncc3Cl)ccc12 [Example 128, N-(3-chloropyridin-4-yl)-3-((methylamino)methyl)-1-(pyridin-3-ylsulfonyl)-1H-indol-6-amine hydrochloride]",1220
7,"CNCc1cn(S(=O)(=O)c2cccnc2)c2cc(Nc3ccncc3C(F)(F)F)ccc12 [Example 129, 3-((methylamino)methyl)-1-(pyridin-3-ylsulfonyl)-N-(3-(trifluoromethyl)pyridin-4-yl)-1H-indol-6-amine hydrochloride]",10200
8,"CNCc1cn(S(=O)(=O)c2cccnc2)c2cc(Nc3ccnc(OC)c3Cl)ccc12 [Example 130, N-(3-chloro-2-methoxypyridin-4-yl)-3-((methylamino)methyl)-1-(pyridin-3-ylsulfonyl)-1H-indol-6-amine hydrochloride]",20000
9,"CNCc1cn(S(=O)(=O)c2cccnc2)c2cc(Nc3ccnc(OC)c3Br)ccc12 [Example 131, N-(3-bromo-2-methoxypyridin-4-yl)-3-((methylamino)methyl)-1-(pyridin-3-ylsulfonyl)-1H-indol-6-amine hydrochloride]",780
10,"CNCc1cn(S(=O)(=O)c2cccnc2)c2cc(Nc3ccnc(Cl)c3Cl)ccc12 [Example 132, N-(2,3-dichloropyridin-4-yl)-3-((methylamino)methyl)-1-(pyridin-3-ylsulfonyl)-1H-indol-6-amine hydrochloride]",730
11,"CNCc1cn(S(=O)(=O)c2cccnc2)c2cc(Nc3c(F)cnc(F)c3F)ccc12 [Example 134, 3-((methylamino)methyl)-1-(pyridin-3-ylsulfonyl)-N-(2,3,5-trifluoropyridin-4-yl)-1H-indol-6-amine hydrochloride]",2050
12,"CNCc1cn(S(=O)(=O)c2cccnc2)c2cc(Nc3ccc4ncccc4c3)ccc12 [Example 135, N-3-((methylamino)methyl)-1-(pyridin-3-ylsulfonyl)-1H-indol-6-yl)quinolin-6-amine hydrochloride]",3000
13,"CNCc1cn(S(=O)(=O)c2cccc(F)c2)c2cc(Nc3ccc(C)cc3F)ccc12 [Example 136, N-(2-fluoro-4-methylphenyl)-1-((3-fluorophenyl)sulfonyl)-3-((methylamino)methyl)-1H-indol-6-amine hydrochloride]",710
14,"CNCc1cn(S(=O)(=O)c2cccc(F)c2)c2cc(Nc3ccc(C)cc3Cl)ccc12 [Example 137, N-(2-chloro-4-methylphenyl)-1-((3-fluorophenyl)sulfonyl)-3-((methylamino)methyl)-1H-indol-6-amine hydrochloride]",60
15,"CNCc1cn(S(=O)(=O)c2cccc(F)c2)c2cc(Nc3ccc(OC(F)(F)F)cc3C)ccc12 [Example 140, 1-((3-fluorophenyl)sulfonyl)-N-(2-methyl-4-(trifluoromethoxy)phenyl)-3-((methylamino)methyl)-1H-indol-6-amine hydrochloride]",190
16,"CNCc1cn(S(=O)(=O)c2cccc(Cl)c2)c2cc(Nc3ccc(C)cc3F)ccc12 [Example 146, 1-((3-chlorophenyl)sulfonyl)-N-(2-fluoro-4-methylphenyl)-3-((methylamino)methyl)-1H-indol-6-amine hydrochloride]",150

row,Compound,IC50 [nM]
1,"CNCc1cn(S(=O)(=O)c2cccc(Cl)c2)c2cc(Nc3ccc(C)cc3Cl)ccc12 [Example 147, N-(2-chloro-4-methylphenyl)-1-((3-chlorophenyl)sulfonyl)-3-((methylamino)methyl)-1H-indol-6-amine hydrochloride]",90
2,"CNCc1cn(S(=O)(=O)c2cccc(Cl)c2)c2cc(Nc3ccc(F)cc3Cl)ccc12 [Example 149, N-(2-chloro-4-fluorophenyl)-1-((3-chlorophenyl)sulfonyl)-3-((methylamino)methyl)-1H-indol-6-amine hydrochloride]",10
3,"CNCc1cn(S(=O)(=O)c2cccc(Cl)c2)c2cc(Nc3ccc(Cl)cc3F)ccc12 [Example 150, N-(4-chloro-2-fluorophenyl)-1-((3-chlorophenyl)sulfonyl)-3-((methylamino)methyl)-1H-indol-6-amine hydrochloride]",570
4,"CNCc1cn(S(=O)(=O)c2cccc(Cl)c2)c2cc(Nc3ccc(Cl)cc3C(F)(F)F)ccc12 [Example 151, N-(4-chloro-2-(trifluoromethyl)phenyl)-1-((3-chlorophenyl)sulfonyl)-3-((methylamino)methyl)-1H-indol-6-amine hydrochloride]",510
5,"CNCc1cn(S(=O)(=O)c2cccc(Cl)c2)c2cc(Nc3ccc(C(F)(F)F)cc3Cl)ccc12 [Example 152, N-(2-chloro-4-(trifluoromethyl)phenyl)-1-((3-chlorophenyl)sulfonyl)-3-((methylamino)methyl)-1H-indol-6-amine hydrochloride]",350
6,"CNCc1cn(S(=O)(=O)c2cccc(Cl)c2)c2cc(Nc3ccc(OC(F)(F)F)cc3C)ccc12 [Example 154, 1-((3-chlorophenyl)sulfonyl)-N-(2-methyl-4-(trifluoromethoxy)phenyl)-3-((methylamino)methyl)-1H-indol-6-amine hydrochloride]",480
7,"CNCc1cn(S(=O)(=O)c2cccc(Cl)c2)c2cc(Nc3ccc(OC(F)(F)F)cc3F)ccc12 [Example 155, 1-((3-chlorophenyl)sulfonyl)-N-(2-fluoro-4-(trifluoromethoxy)phenyl)-3-((methylamino)methyl)-1H-indol-6-amine hydrochloride]",440
8,"CNCc1cn(S(=O)(=O)c2cccc(Cl)c2)c2cc(Nc3ccc(C)c(F)c3F)ccc12 [Example 156, 1-((3-chlorophenyl)sulfonyl)-N-(2,3-difluoro-4-methylphenyl)-3-((methylamino)methyl)-1H-indol-6-amine hydrochloride]",380
9,"CNCc1cn(S(=O)(=O)c2cccc(Cl)c2)c2cc(Nc3cccnc3OC)ccc12 [Example 157, 1-((3-chlorophenyl)sulfonyl)-N-(2-methoxypyridin-3-yl)-3-((methylamino)methyl)-1H-indol-6-amine hydrochloride]",380
10,"CNCc1cn(S(=O)(=O)c2cccc(Cl)c2)c2cc(Nc3ccc(C)nc3F)ccc12 [Example 158, 1-((3-chlorophenyl)sulfonyl)-N-(2-fluoro-6-methylpyridin-3-yl)-3-((methylamino)methyl)-1H-indol-6-amine hydrochloride]",410
11,"CNCc1cn(S(=O)(=O)c2cccc(Cl)c2)c2cc(Nc3ccc(Cl)nc3Cl)ccc12 [Example 159, 1-((3-chlorophenyl)sulfonyl)-N-(2,6-dichloropyridin-3-yl)-3-((methylamino)methyl)-1H-indol-6-amine hydrochloride]",340
12,"CNCc1cn(S(=O)(=O)c2cccc(Cl)c2)c2cc(Nc3ccc(C(F)(F)F)nc3Cl)ccc12 [Example 161, N-(2-chloro-6-(trifluoromethyl)pyridin-3-yl)-1-((3-chlorophenyl)sulfonyl)-3-((methylamino)methyl)-1H-indol-6-amine hydrochloride]",460
13,"CNCc1cn(S(=O)(=O)c2cccc(OC)c2)c2cc(Nc3ccc(C)cc3F)ccc12 [Example 162, N-(2-fluoro-4-methylphenyl)-1-((3-methoxyphenyl)sulfonyl)-3-((methylamino)methyl)-1H-indol-6-amine hydrochloride]",20
14,"CNCc1cn(S(=O)(=O)c2cccc(OC)c2)c2cc(Nc3ccc(C)cc3Cl)ccc12 [Example 163, N-(2-chloro-4-methylphenyl)-1-((3-methoxyphenyl)sulfonyl)-3-((methylamino)methyl)-1H-indol-6-amine hydrochloride]",140
15,"CNCc1cn(S(=O)(=O)c2cccc(OC)c2)c2cc(Nc3ccc(Cl)cc3F)ccc12 [Example 164, N-(4-chloro-2-fluorophenyl)-1-((3-methoxyphenyl)sulfonyl)-3-((methylamino)methyl)-1H-indol-6-amine hydrochloride]",7060
16,"CNCc1cn(S(=O)(=O)c2cccc(OC)c2)c2cc(Nc3ccc(Cl)cc3C(F)(F)F)ccc12 [Example 165, N-(4-chloro-2-(trifluoromethyl)phenyl)-1-((3-methoxyphenyl)sulfonyl)-3-((methylamino)methyl)-1H-indol-6-amine hydrochloride]",80
